Reference: patent US20250170115A1, “LENALIDOMIDE ORAL SOLUTION” (A FINE HOUSE S.A., priority 2021, published 2025)

Experiment: Precipitation after preparation of lenalidomide compositions without glycol or polyol
Type: physicochemical
Details: lenalidomide dissolved in an aqueous buffer at pH between 1.0 and 3.5; a few minutes
Description: A composition was prepared according to example 23 of WO 1998/03502. The solution contained 5.0 g lenalidomide, 22.5 g sodium chloride, 300.0 g phosphate buffer with pH 7.4 and demineralized water. The pH of the final composition was 7.4.
Similar results (i.e. precipitation) were obtained a few minutes after lenalidomide was dissolved in an aqueous buffer at pH between 1.0 and 3.5.
Likewise, attempts to prepare an oral solution by combining lenalidomide with any one of arginine, leucine, povidone K25, sodium lauryl sulfate, hydroxypropyl methylcellulose, poloxamer 20, in an aqueous buffer at pH 2.0 or pH 2.5 led to the formation of precipitate within minutes of the preparation of the compositions.

Which precipitation after dissolution does the source give for `Nc1cccc2c1CN(C1CCC(=O)NC1=O)C2=O` (racemic) [Lenalidomide, 1-oxo-(2,6-dioxopiperidin-3-yl)-4-aminoisoindoline] here?
The precipitation after dissolution was “precipitation”.
